Test results from PMC11784096, “Synthesis, antibacterial evaluation and in silico studies of novel 2-(benzo[d]thiazol-2-yl)-N-arylacetamides and their derivatives as potential DHFR inhibitors” (BMC Chemistry, 2025).
In brackets after ≈: the same amount, converted by molar mass. Read-outs that look alike come from different tables or passages of the source. Blank lines part the entries; values can stand above or below the molecule they belong to.

Experiments:
K. pneumonia [1] = test: Agar diffusion method, inhibition zone diameter; type: cell-based, Klebsiella pneumonia; conditions: Gram-negative
From the text: (§1) The bacterial growth inhibition activity of most of the newly synthesized compounds was examined against different Gram-positive and Gram-negative strains. The Agar diffusion method was used to assess the antibacterial and antifungal activity. The Gram-negative strains were: E. coli, K. pneumonia, P. aeruginosa and A. baumannii, the Gram-positive strains were: St. aureus, St. mutans and the standard antibiotics were gentamicin, tigecycline and ampicillin.
(§2) The agar-based media plate surface was inoculated by spreading a volume of the microbial inoculum over the entire agar surface.
(§3) Using a sterile cork borer or a tip, a hole with a diameter of 6 to 8 mm was made.
(§4) Using a micropipette, (20 µL) volume of the antimicrobial agent or extract solution at the desired concentration was introduced into the well.
(§5) The inoculated plates were incubated under suitable conditions depending upon the tested microorganism. The antimicrobial agent diffused through the agar medium and inhibited the growth of the microbial strain tested.
(§6) After a suitable incubation period (16 to 48 hours) according to the optimum growth conditions, the resulting inhibition zone diameters (in mm) around the wells were measured to the nearest whole millimeter at the point at which there is a prominent reduction in growth. If growth is insufficient at the recommended times, the plates should be re-incubated and read later.

St. aureus [2] = test: Agar diffusion method, inhibition zone diameter; type: cell-based, Staphylococcus aureus; conditions: Gram-positive
From the text: as §1, §2, §3, §4, §5, §6

E. coli [3] = test: Minimum inhibition concentration, serial dilution; type: cell-based, Escherichia coli; conditions: Escherichia coli, 37 °C
Protocol: (§7) For each strain, three to five isolated colonies were selected from the fresh agar plate and transferred into a tube containing 3-4 ml of the sterile broth medium. The bacterial suspension was mixed well and incubated at 35-37 °C for 2-6 hours. […] After that, 1 mg of the tested compound (antimicrobial agent) was dissolved in 1 ml of DMSO and a two-fold serial dilution was done using a broth medium. A fixed volume of the prepared bacterial inoculum was added to each tube and incubated at 37 °C for 16-20 hours. The MIC is defined as the lowest concentration of the antimicrobial agent that inhibits visible growth of the tested isolate as observed with the unaided eye.

St. mutans [4] = test: Minimum inhibition concentration, serial dilution; type: cell-based; conditions: Streptococcus mutans, 37 °C
Protocol: as §7

St. aureus [5] = test: Minimum inhibition concentration, serial dilution; type: cell-based; conditions: Staphylococcus aureus, 37 °C
Protocol: as §7

E. coli [6] = test: Agar diffusion method, inhibition zone diameter; type: cell-based, Escherichia coli; conditions: Gram-negative
From the text: as §1, §2, §3, §4, §5, §6

A. baumannii [7] = test: Minimum inhibition concentration, serial dilution; type: cell-based, Acinetobacter baumannii; conditions: Acinetobacter baumannii, 37 °C
Protocol: as §7

K. pneumonia [8] = test: Minimum inhibition concentration, serial dilution; type: cell-based, Klebsiella pneumonia; conditions: Klebsiella pneumoniae, 37 °C
Protocol: as §7

any bacterial strain = test: Agar diffusion method, stated for all strains together; type: cell-based; conditions: in words
From the text: as §1, §2, §3, §4, §5, §6

A. baumannii [9] = test: Agar diffusion method, inhibition zone diameter; type: cell-based, Acinetobacter baumannii; conditions: Gram-negative
From the text: as §1, §2, §3, §4, §5, §6

St. mutans [10] = test: Agar diffusion method, inhibition zone diameter; type: cell-based; conditions: Gram-positive
From the text: as §1, §2, §3, §4, §5, §6

[11] = test system: all tested Gram-negative and Gram-positive strains; test: Minimum inhibition concentration, stated for all tested strains together; type: cell-based
Protocol: as §7

P. aeruginosa [12] = test: Minimum inhibition concentration, serial dilution; type: cell-based, Pseudomonas aeruginosa; conditions: Pseudomonas aeruginosa, 37 °C
Protocol: as §7

P. aeruginosa [13] = test: Agar diffusion method, inhibition zone diameter; type: cell-based, Pseudomonas aeruginosa; conditions: Gram-negative
From the text: as §1, §2, §3, §4, §5, §6

[14] = molecular target: dihydrofolate reductase in Escherichia coli (Escherichia coli, UniProt P0ABQ4); test: In vitro DHFR inhibition assessment; type: biochemical; conditions: for inhibitory activity against DHFR relative to trimethoprim: fold of trimethoprim, in words
DHFR [15] = test system: DHFR; set-up: method as in PMID 28789907; conditions: read-out: IC50 DHFR inhibition; cited from earlier work
DHFR [16] = test system: DHFR; set-up: method as in doi:10.1007/s00706-017-2032-7; conditions: read-out: IC50 against DHFR activity; cited from earlier work
[17] = test system: St. aureus, B. subtilis, K. pneumonia and E. coli; set-up: method as in doi:10.1007/s12039-020-01844-8; conditions: as printed in Fig. 2; cited from earlier work
[18] = test system: E. coli and P. aeruginosa; set-up: method as in earlier work; conditions: cited from earlier work

Chain of dihydrofolate reductase in Escherichia coli (P0ABQ4 whole entry): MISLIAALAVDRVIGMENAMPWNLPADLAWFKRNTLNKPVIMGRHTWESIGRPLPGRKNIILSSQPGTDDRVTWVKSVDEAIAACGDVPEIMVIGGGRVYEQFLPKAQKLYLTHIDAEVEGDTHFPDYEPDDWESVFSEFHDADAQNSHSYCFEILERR

MIC (E. coli [3]): 0.25 µg/mL (≈ 0.932 µM) | MIC (St. mutans [4]): 0.0625 µg/mL (≈ 0.233 µM) | MIC (St. aureus [5]): 0.25 µg/mL (≈ 0.932 µM) | MIC (A. baumannii [7]): 0.125 µg/mL (≈ 0.466 µM) | MIC (K. pneumonia [8]): 0.125 µg/mL (≈ 0.466 µM)
Compound: O=C(Cc1nc2ccccc2s1)Nc1ccccc1 [2a, 2-(Benzo[d]thiazol-2-yl)-N-phenylacetamide]
IZD K. pneumonia (K. pneumonia [1]): 34 ± 0.8 mm | IZD St. aureus (St. aureus [2]): 31 ± 1 mm | IZD E. coli (E. coli [6]): 34 ± 0.5 mm

Compound: Cc1ccc(NC(=O)Cc2nc3ccccc3s2)cc1 [2b, 2-(Benzo[d]thiazol-2-yl)-N-(p-tolyl)acetamide]
antibacterial activity against any bacterial strain (any bacterial strain): no activity

Compound: O=C(Cc1nc2ccccc2s1)Nc1ccc(Cl)cc1 [2c, 2-(Benzo[d]thiazol-2-yl)-N-(4-chlorophenyl)acetamide]
IZD A. baumannii (A. baumannii [9]): 35 ± 1 mm | IZD St. mutans (St. mutans [10]): 25 ± 1 mm | IZD K. pneumonia (K. pneumonia [1]): 35 ± 1 mm | MIC [11]: 0.0312 µg/mL (≈ 0.103 µM) | IZD St. aureus (St. aureus [2]): 28 ± 1 mm | MIC (E. coli [3]): 0.0312 µg/mL (≈ 0.103 µM) | MIC (P. aeruginosa [12]): 0.0312 µg/mL (≈ 0.103 µM) | MIC (St. mutans [4]): 0.0312 µg/mL (≈ 0.103 µM) | MIC (St. aureus [5]): 0.0312 µg/mL (≈ 0.103 µM) | IZD P. aeruginosa (P. aeruginosa [13]): 36 ± 1 mm | IZD E. coli (E. coli [6]): 35 ± 1 mm | MIC (A. baumannii [7]): 0.0312 µg/mL (≈ 0.103 µM) | MIC (K. pneumonia [8]): 0.0312 µg/mL (≈ 0.103 µM) | IC50 [14]: 3800 ± 198 nM | inhibitory activity against DHFR relative to trimethoprim [14]: about two-fold

Compound: O=C(Nc1ccccc1)C(=Cc1ccc(OC(=O)c2ccccc2)cc1)c1nc2ccccc2s1 [4m, 4-(2-(Benzo[d]thiazol-2-yl)-3-oxo-3-(phenylamino)prop-1-en-1-yl)phenylbenzoate]
IZD A. baumannii (A. baumannii [9]): 35 ± 1.1 mm | IZD St. mutans (St. mutans [10]): 28 ± 1.1 mm | IZD K. pneumonia (K. pneumonia [1]): 35 ± 1.1 mm | MIC [11]: 0.0312 µg/mL (≈ 0.0656 µM) | IZD St. aureus (St. aureus [2]): 25 ± 1.1 mm | MIC (E. coli [3]): 0.0312 µg/mL (≈ 0.0656 µM) | MIC (P. aeruginosa [12]): 0.0312 µg/mL (≈ 0.0656 µM) | MIC (St. mutans [4]): 0.0312 µg/mL (≈ 0.0656 µM) | MIC (St. aureus [5]): 0.0312 µg/mL (≈ 0.0656 µM) | IZD P. aeruginosa (P. aeruginosa [13]): 30 ± 1 mm | IZD E. coli (E. coli [6]): 35 ± 1.1 mm | MIC (A. baumannii [7]): 0.0312 µg/mL (≈ 0.0656 µM) | MIC (K. pneumonia [8]): 0.0312 µg/mL (≈ 0.0656 µM) | IC50 [14]: 2440 ± 128 nM | inhibitory activity against DHFR relative to trimethoprim [14]: about four-fold

Compound: Cc1ccc(NC(=O)C(=Cc2ccc(OC(=O)c3ccccc3)cc2)c2nc3ccccc3s2)cc1 [4n, 4-(2-(Benzo[d]thiazol-2-yl)-3-oxo-3-(p-tolylamino)prop-1-en-1-yl)phenylbenzoate]
antibacterial activity against any bacterial strain (any bacterial strain): no antibacterial activity

MIC (St. mutans [4]): 0.0625 µg/mL (≈ 0.179 µM) | MIC (St. aureus [5]): 0.0625 µg/mL (≈ 0.179 µM)
Compound: CC1(C)S[C@@H]2[C@H](NC(=O)[C@H](N)c3ccccc3)C(=O)N2[C@H]1C(=O)O [Ampicillin, reference compound]
IZD St. mutans (St. mutans [10]): 22 ± 0.1 mm | IZD St. aureus (St. aureus [2]): 29 ± 0.2 mm

Compound: Clc1ccc(/C=N/c2nc3ccccc3s2)cc1 [II]
IC50 (DHFR [15]): 31.2 nM

Compound: Nc1nc(N)c(-c2nc3ccccc3s2)c(CCCOC(=O)CCl)n1 [IV]
IC50 (DHFR [16]): 1300 nM

Compound: O=[N+]([O-])c1cccc(/C=N/c2nc3ccccc3s2)c1 [I]
IC50 (DHFR [15]): 41.5 nM

Compound: O=C1CSC(c2cccc(Cl)c2Cl)N1c1nc2cc(OC(F)(F)F)ccc2s1 (stereo not shown) [VII]
MIC [17]: 100 to 250 µg/mL

Compound: CC(=O)Nc1cc(-c2nc3ccccc3s2)ccc1OCC(=O)N/N=C/c1ccc(O)cc1 [V]
MIC [18]: 0.2 µg/mL (≈ 0.434 µM)
